How the values were obtained:
Wistar rats [1] = assay: Rotenone-induced PD: severe oligokinesia in open field test; assay type: in vivo, rat; conditions: oligokinesia ++-+++ in OF test
Description: Locomotive activity of rats was tested in the “open field” test. […] Registration of horizontal and vertical locomotive activity was carried out in first day for rats with high selection locomotive activity (total walking time with not less than 12 seconds and the number of vertical uprights at least 4), 60 minutes before the first administration of rotenone. To identify the rotenone-induced oligokinesia in each experimental group the locomotive activity in the open field test was examined again 2 hours after the administration of rotenone on days 12 and 19 of the experiment.
(§1) Quantification of oligokinesia in points: 0 points—the highest horizontal activity (walking total time more than 12 seconds) and high vertical activity (number of vertical posts) more than 3; 1 point—reducing the horizontal activity (total walking time 7-11 seconds) and a decrease in vertical activity (the number of vertical columns 1-3); 2 points—a significant reduction in horizontal activity (total walking time 2-6 seconds) and the absence of vertical activity (the number of vertical columns 0-1); 3 points—the absence of horizontal activity (total walking time 0-1 seconds) and the absence of vertical activity (number of vertical columns 0). In each experimental group 120 minutes after administration of rotenone on days 12 and 19 of experiment the number of rats with severe oligokinesia (2-3 points) in % of the total number of rats in group was determined.
Locomotive activity of rats was tested in the “open field” test. […] Registration of horizontal and vertical locomotive activity was carried out in first day for rats with high selection locomotive activity (total walking time with not less than 12 seconds and the number of vertical uprights at least 4), 60 minutes before the first administration of rotenone. To identify the rotenone-induced oligokynesia in each experimental group the locomotive activity in the open field test was examined again 2 hours after the administration of rotenone on days 12 and 19 of the experiment.
as §1, with “of oligokynesia” for “of oligokinesia”

Wistar rats [2] = assay: Rotenone-induced PD: severe catalepsy on inclined grid; assay type: in vivo, rat; conditions: for Severe catalepsy (% of group): 45 min before rotenone 2.3 mg/kg, immobilization on inclined grid above 40 seconds; for Severe catalepsy, Day 19: control 58, doses as E38; for Severe catalepsy, Day 12: oral daily 19 days, 45 min before rotenone 2.3 mg/kg IP, levodopa given with benserazide 4:1, control 42, rat dose mg/kg by row (L levodopa, P phenylephrine, M memantine): r12 M2.5, r13 M5, r14 P0.3, r15 L10, r16 L20, r17 L5+P0.3+M1, r18 L10+P0.3+M1
Excerpt: Rotenone is a specific inhibitor of mitochondrial complex 1, which causes oxidative stress and apoptotic death of dopaminergic and cholinergic neurons in the striatum, substantia nigra and cerebellum. Damage to these neurons causes a decrease in dopamine and acetylcholine levels in the striatum, extrapyramidal disorders (catalepsy, impaired coordination of movements) and oligokinesia typical for PD, as well as ataxia, limb dystonia and mortality characteristic of PSP. Rotenone is used to create a model of PD and PSP in Wistar rats by intraperitoneal introduction of rotenone in a toxic dose of 2.3 mg/kg (Jason R. Cannon et al., Neurobiology of Disease, 2009, Vol. 34, pages 279-290).
Rotenone was dissolved in mixture of DMSO and Miglyol 812N at a ratio of 2:98 at concentration of 2.3 mg/ml. Preparation: 230 mg sample of rotenone in vials was dissolved in 2 ml of DMSO. The solution was poured into a jar with 100 ml. Vials are rinsed twice with 5 ml of Miglyol, washings attached to the main solution and stirred. To this solution was added 88 ml of Miglyol and mixed again. The resulting solution was divided into 3 doses. The solution was stored at −10° C. Each animal was administered 0.2 ml of a solution of rotenone: a dose of 0.46 mg per animal weighing 200±20 g, i.e. 2.3 mg/kg. The solution of rotenone was injected IP one time a day for 19 days.
Anti-parkinsonian effect of therapy in rats with rotenone-induced PD was estimated according to elimination of extrapyramidal disorders (catalepsy) and oligokinesia (rapid decreased amplitude and velocity of repeated movements) in the “open field” test. The neuro-protective effect of therapy was evaluated by the elimination of ataxia limb dystonia and mortality in rats with rotenone-induced PSP. Hyperkinetic side action (hyper-locomotion) was evaluated by increased horizontal and vertical activity in the open field at the 10th and 18th day of the experiment, calculated in % compared to the first day of the experiment.
The number of animals in the control and experimental groups ranged from 6 to 8.
Levodopa was administered in combination with benserazide (peripheral dopa-decarboxylase inhibitor) at a ratio of 4:1 to reduce the side effects of levodopa, associated with the stimulation of peripheral dopamine receptors (Alam M. et al., Behav. Brain Res., 2004, Vol. 153 (2), pages 439-446). Levodopa with benserazide were dissolved in 1 ml of DW and administered orally in the volume of 1 ml. […] The mixture was administered orally in a volume of 1 ml. Anti-parkinsonian effect in the experimental groups of rats with rotenone has been evaluated by eliminating catalepsy and oligokinesia.
Catalepsy in rats is determined by the time of immobilization of the animal, placed on a large grid predisposed at an angle of 45°. Maximum catalepsy in rats is recorded in the case of their complete immobilization on grid at 120 seconds for observation. The value of catalepsy is evaluated in points: 3 points—immobilization duration from 80 seconds to 120, 2 points—immobilization duration from 40 to 70, 1 point—immobilization duration from 20 to 35, 0 points—the immobilization of less than 20 seconds. Catalepsy was followed in rats daily, 30 minutes before administration of rotenone and 180 minutes after administration of rotenone. For each experimental group, on a daily basis, throughout the period of observation number of rats with severe catalepsy (2-3 points) was determined in % of the total number of rats in group. To assess the anti-cataleptic effects of therapy, on 12th and 19th day of experiment, reduction in the number of rats with severe catalepsy (2-3 points) in % was determined compared to control treated with distilled water.
Anti-parkinsonian effect of therapy in rats with rotenone-induced parkinsonism was estimated according to elimination of extrapyramidal disorders (catalepsy) and oligokinesia in the “open field” test. […]

SMILES	Severe oligokinesia (% of group) (Wistar rats [1]; Day 12, levodopa 10 mg/kg oral)	Severe oligokinesia (% of group) (Wistar rats [1]; Day 12, levodopa 20 mg/kg oral)	Severe oligokinesia (% of group) (Wistar rats [1]; Day 19, levodopa 10 mg/kg oral)	Severe oligokinesia (% of group) (Wistar rats [1]; Day 19, levodopa 20 mg/kg oral)	Severe catalepsy (% of group) (Wistar rats [2]; Day 12, levodopa 10 mg/kg oral)	Severe catalepsy (% of group) (Wistar rats [2]; Day 12, levodopa 20 mg/kg oral)	Severe catalepsy (% of group) (Wistar rats [2]; Day 19, levodopa 10 mg/kg oral)	Severe catalepsy (% of group) (Wistar rats [2]; Day 19, levodopa 20 mg/kg oral)	Severe catalepsy, Day 19 (Wistar rats [2]; levodopa 10 mg/kg)	Severe catalepsy, Day 19 (Wistar rats [2]; levodopa 20 mg/kg)	Severe oligokinesia (% of group) (Wistar rats [1]; Day 12, memantine 5 mg/kg oral)	Severe oligokinesia (% of group) (Wistar rats [1]; Day 19, memantine 5 mg/kg oral)	Severe catalepsy (% of group) (Wistar rats [2]; Day 12, memantine 5 mg/kg oral)	Severe catalepsy (% of group) (Wistar rats [2]; Day 12, memantine […] oral)	Severe catalepsy (% of group) (Wistar rats [2]; Day 19, memantine 5 mg/kg oral)	Severe catalepsy (% of group) (Wistar rats [2]; Day 19, memantine […] oral)	Severe catalepsy, Day 12 (Wistar rats [2]; memantine 2.5 mg/kg)	Severe catalepsy, Day 12 (Wistar rats [2]; memantine 5 mg/kg)
N[C@@H](Cc1ccc(O)c(O)c1)C(=O)O [Levodopa, L-3,4-dihydroxyphenylalanine]	86 % of group	50 % of group	100 % of group	63 % of group	28 % of group	12 % of group	42 % of group	24 % of group	42 % of group	24 % of group	–	–	–	–	–	–	–	–
CC12CC3CC(C)(C1)CC(N)(C3)C2 [Memantine, memantine]	–	–	–	–	–	–	–	–	–	–	50 % of group	50 % of group	17 % of group	33 % of group	17 % of group	50 % of group	33 % of group	17 % of group

From patent US20200188388A1, “METHODS AND COMPOSITIONS FOR PO[…] DRUGS AND REDUCING THEIR SIDE EFFECTS” (RVX THERAPEUTICS LTD., priority 2016, published 2020)
